Test results reported in patent US20230339991A1, “HYPOXIA-ACTIVATED DNA ALKYLATING AGENT AND MEDICAL USE THEREOF” (ASCENTAWITS PHARMACEUTICALS, LTD., priority 2020, published 2023).
Several values for one entry are separate records, joined by “and”; a condition that tells them apart may be missing. Equal entries are not always repeated. Where two headings read alike, the source gives them in different places. Marks after values point to notes of the source that are not given here.

Tests used:
Plasma stability, human = type: in vitro ADME; details: for Remaining percentage: after 30 minutes, 5 μM, 37° C.; for plasma stability: human plasma
Experimental: (§1) The pH of the plasma was checked and recorded. Note: a.
(§2) The final concentration of solvent was 0.5%.
(§3) The assay is performed in duplicate.

AA8 = assay: Cell inhibition of different species, normoxic, AA8; type: cell-based, Rat; details: IC50 AA8/H460
Description: To further compare the cytotoxicity of TH-302 with that of compound A, the following further provide test results for H460 cell line and cells from different species at different test times in the same laboratory, with the same operator and under the same experimental conditions.

Plasma stability, mouse = type: in vitro ADME; details: for Remaining percentage: after 30 minutes; for plasma stability: mouse plasma
Experimental: as §1, §2, §3

[1] = tested on: DLD-1 WT (wild type) cells; assay: Clonogenic assay, DLD-1 WT; type: cell-based; details: for IC90: Homo sapiens, 3 h
Experimental: (§4) The following PSN-1 cells, PANC1 cells, MiaPaCa-2 cells, H460 cells, DLD-1 WT (wild type) cells, DLD-1 BRCA2 KO (BRCA2 deletion) cells were seeded in 10 cm vitreous cell culture plates at specific cell numbers and incubated for 2 days at 37° C. and under the conditions of 5% CO2, 95% air and 100% relative humidity. On day 3, test compounds TH302 or AST-002-P2 at the specific concentrations were added to the cells, and incubated for 3 hours together with the cells under normoxic (21% O2) and hypoxic conditions (<0.01% O2), respectively. After cells were stimulated by compounds, the cells were washed once with 1×PBS and digested into single cells with pancreatic enzymes for cell counting. The above cells in specific cell numbers were reseeded in a new culture plate and cultured for 7 days to perform single cell colony formation. When single cells in compound culture plates stimulated under normoxic conditions proliferated to about 50 cells, the cultures were removed and stained with 0.5% crystal violet for 40 minutes. After staining, cells were counted for colonies using Colony Counter (VWR) and the IC90 was calculated.

PANC1 cells = assay: Clonogenic assay, PANC1; type: cell-based, human; details: for IC90: Homo sapiens, PANC-1, 3 h
Experimental: as §4

H460 cells = assay: Clonogenic assay, H460; type: cell-based, human; details: for IC90: Homo sapiens, NCI-H460, 3 h
Experimental: as §4

[2] = Blood-brain barrier experiment, brain and plasma concentrations after IV dosing; type: in vivo, CD-1 mice; details: for half-life: read-out: T½ (converted)
Experimental: Three CD-1 […] were administered 1 mg/kg of the test compound intravenously at each time point. Blood and brain tissue were collected at 5 min, 15 min, 1 h, 2 h, 4 h and 8 h after administration.

[3] = 21% O2, read-out: IC90 Normoxia
[4] = <0.01% O2, read-out: IC90 Hypoxia
[5] = CD-1, mouse, plasma, IV 1 mg/kg
[6] = IV 1 mg/kg, 0.083 h, single animals, 1 mg/kg
[7] = IV 1 mg/kg, 0.25 h, single animals, 1 mg/kg
[8] = IV 1 mg/kg, 1 h, single animals, 1 mg/kg
[9] = IV 1 mg/kg, 2 h, single animals, 1 mg/kg
[10] = IV 1 mg/kg, 4 h, single animals, 1 mg/kg
[11] = IV 1 mg/kg, 8 h, single animals

SMILES: O=[N+]([O-])c1ccc(C(OP(=O)(N2CC2)N2CC2)C(F)(F)F)c2ccccc12 (racemic) [Compound A]
- Remaining percentage (%) (Plasma stability, human; Human plasma, 15 min): 108 ± 0.773%
- Remaining percentage (%) (Plasma stability, human; Human plasma, 60 min): 99.2 ± 3.39%
- Remaining percentage (%) (Plasma stability, human; Human plasma, 90 min): 93.8 ± 3.12%
- Remaining percentage (%) (Plasma stability, human; Human plasma, 120 min): 89.7% and 89.7 ± 4.43%
- Remaining percentage (%) (Plasma stability, human; Human plasma, 2 h time course, 0 min): 100%
- Remaining percentage (Plasma stability, human; Human plasma): 68.68%
- t½ (Plasma stability, human; Human plasma, in vitro): >373* min
- half-life at 5 µM (Plasma stability, human; Human plasma, in vitro, read-out: t½): > 373 min
- Remaining percentage (%) (Plasma stability, human; Human plasma, time course, 30 min): 102 ± 3.85%
- plasma stability (Plasma stability, human): stable
- Multiplier: Rat/Human (AA8; exposure 3 days): 110
- Remaining percentage (%) (Plasma stability, mouse; Mouse plasma, 15 min): 104 ± 2.96%
- Remaining percentage (%) (Plasma stability, mouse; Mouse plasma, 60 min): 86.6 ± 3.16%
- Remaining percentage (%) (Plasma stability, mouse; Mouse plasma, 90 min): 76.9 ± 2.40%
- Remaining percentage (%) (Plasma stability, mouse; Mouse plasma, 120 min): 66.4% and 66.4 ± 0.993%
- Remaining percentage (%) (Plasma stability, mouse; Mouse plasma, 2 h time course, 0 min): 100%
- Remaining percentage (Plasma stability, mouse; Mouse plasma): 55.07%
- half-life at 5 µM (Plasma stability, mouse; Mouse plasma, in vitro, read-out: t½): 189 min
- Remaining percentage (%) (Plasma stability, mouse; Mouse plasma, time course, 30 min): 97.7 ± 4.71%
- plasma stability (Plasma stability, mouse): unstable

SMILES: Cn1c(COP(=O)(NCCBr)NCCBr)cnc1[N+](=O)[O-] [TH-302, Evofosfamide]
- IC90 [1, 3]: 26.2 µM
- IC90 [1, 4]: 0.21 µM
- HCR ([1]; IC90 ratio normoxic/N2): 125
- Multiplier: Rat/Human (AA8; exposure 2 h): 41.5
- IC90 (PANC1 cells; [3]): > 100 µM
- IC90 (PANC1 cells; [4]): 7.29 µM
- HCR (PANC1 cells; IC90 ratio normoxic/N2): >13.7
- IC90 (H460 cells; [3]): 15.6 µM
- IC90 (H460 cells; [4]): 0.021 µM
- HCR (H460 cells; IC90 ratio normoxic/N2): 741

SMILES: O=[N+]([O-])c1ccc([C@H](OP(=O)(N2CC2)N2CC2)C(F)(F)F)c2ccccc12 [Compound B]
- concentration at 0.083 h ([2]; CD-1, mouse, brain, iv, 1 mg/kg, IV 1 mg/kg, 0.083 h, single animals, read-out: Brain concentration): 992 ng/g
- concentration at 0.25 h ([2]; CD-1, mouse, brain, iv, 1 mg/kg, IV 1 mg/kg, 0.25 h, single animals, read-out: Brain concentration): 499 ng/g
- concentration at 1 h ([2]; CD-1, mouse, brain, iv, 1 mg/kg, IV 1 mg/kg, 1 h, single animals, read-out: Brain concentration): 88.1 ng/g
- concentration at 2 h ([2]; CD-1, mouse, brain, iv, 1 mg/kg, IV 1 mg/kg, 2 h, single animals, read-out: Brain concentration): 9 ng/g
- concentration at 4 h ([2]; CD-1, mouse, brain, iv, 1 mg/kg, IV 1 mg/kg, 4 h, single animals): 1.34 ng/g
- Kp at 0.083 h ([2]; CD-1, mouse, brain/plasma, iv, 1 mg/kg, IV 1 mg/kg, 0.083 h, read-out: Mean Ratio (Brain/Plasma)): 2.25
- Kp at 0.083 h ([2]; CD-1, mouse, brain/plasma, iv, 1 mg/kg, IV 1 mg/kg, 0.083 h, single animals, read-out: Ratio (Brain/Plasma)): 2.18
- Kp at 0.25 h ([2]; CD-1, mouse, brain/plasma, iv, 1 mg/kg, IV 1 mg/kg, 0.25 h, single animals, read-out: Ratio (Brain/Plasma)): 1.47
- Kp at 1 h ([2]; CD-1, mouse, brain/plasma, iv, 1 mg/kg, IV 1 mg/kg, 1 h, read-out: Mean Ratio (Brain/Plasma)): 1.39
- Kp at 1 h ([2]; CD-1, mouse, brain/plasma, iv, 1 mg/kg, IV 1 mg/kg, 1 h, single animals, read-out: Ratio (Brain/Plasma)): 1.26
- Kp at 2 h ([2]; CD-1, mouse, brain/plasma, iv, 1 mg/kg, IV 1 mg/kg, 2 h, read-out: Mean Ratio (Brain/Plasma)): 1.34
- Kp at 4 h ([2]; CD-1, mouse, brain/plasma, iv, 1 mg/kg, IV 1 mg/kg, 4 h, single animals, read-out: Ratio (Brain/Plasma)): 1.19
- Kp ([2]; CD-1, mouse, brain/plasma, iv, 1 mg/kg, IV 1 mg/kg, read-out: AUClnf Ratio (Brain/Plasma)): 1.49
- concentration at 0.083 h ([2]; CD-1, mouse, plasma, iv, 1 mg/kg, IV 1 mg/kg, 0.083 h, single animals, read-out: Plasma concentration): 454 ng/mL
- concentration at 0.25 h ([2]; CD-1, mouse, plasma, iv, 1 mg/kg, IV 1 mg/kg, 0.25 h, single animals, read-out: Plasma concentration): 341 ng/mL
- concentration at 1 h ([2]; CD-1, mouse, plasma, iv, 1 mg/kg, IV 1 mg/kg, 1 h, single animals, read-out: Plasma concentration): 70 ng/mL
- concentration at 2 h ([2]; CD-1, mouse, plasma, iv, 1 mg/kg, IV 1 mg/kg, 2 h, single animals, read-out: Plasma concentration): 8.54 ng/mL
- half-life ([2]; CD-1, mouse, brain tissue, IV 1 mg/kg): 19.8 min
- AUC(0-t) [2, 5]: 289 ng·h/mL
- C0 [2, 5]: 532 ng/mL
- half-life [2, 5]: 27 min
- Brain concentration [2, 6]: 1038.97 ng/g and 916.57 ng/g
- Plasma concentration [2, 6]: 485.00 ng/mL and 393.31 ng/mL
- Ratio (Brain/Plasma) [2, 6]: 2.23 and 2.33
- Brain concentration [2, 7]: 480.24 ng/g and 420.87 ng/g
- Plasma concentration [2, 7]: 289.25 ng/mL and 256.49 ng/mL
- Ratio (Brain/Plasma) [2, 7]: 1.66 and 1.64
- Brain concentration [2, 8]: 104.66 ng/g and 103.20 ng/g
- Plasma concentration [2, 8]: 87.46 ng/mL and 75.23 ng/mL
- Ratio (Brain/Plasma) [2, 8]: 1.55 and 1.37
- Brain concentration [2, 9]: 13.14 ng/g and 15.08 ng/g
- Plasma concentration [2, 9]: 9.83 ng/mL and 11.45 ng/mL
- Ratio (Brain/Plasma) [2, 9]: 1.32
- Brain concentration [2, 10]: BLOQ
- Plasma concentration [2, 10]: 1.13 ng/mL and 0.52 ng/mL and 0.28 ng/mL
- Brain concentration [2, 11]: BLOQ
- Plasma concentration [2, 11]: BLOQ
- AUClast ([2]; brain tissue, IV 1 mg/kg): 429.34 ng·h/g
- AUClnf ([2]; brain tissue, IV 1 mg/kg): 435.32 ng·h/g
- MRTlnf_obs ([2]; brain tissue, IV 1 mg/kg): 24.6 min
- blood-brain barrier penetration ([2]; detected in brain tissue): can penetrate the blood-brain barrier
- Cl_obs ([2]; plasma, IV 1 mg/kg): 57.63 mL/min/kg
- MRTlnf_obs ([2]; plasma, IV 1 mg/kg): 27.6 min
- Vss_obs ([2]; plasma, IV 1 mg/kg): 1.59 L/kg

SMILES: CC(OP(=O)(N1CC1)N1CC1)c1ccc([N+](=O)[O-])c2ccccc12 (stereo not drawn) [Compound D]
- Remaining percentage (Plasma stability, human; Human plasma): 97.06%
- plasma stability (Plasma stability, human): secondarily
- Remaining percentage (Plasma stability, mouse; Mouse plasma): 87.35%
- plasma stability (Plasma stability, mouse): relatively unstable
